Experiments:
PC3 (Prostate) = assay: In vitro cytotoxicity, MTT proliferation assay, PC3; format: cell-based, human; settings: Homo sapiens
Protocol: (§1) The human pancreatic cancer cell line, HPAC (CRL-2119) was routinely cultured in 1:1 mixture DMEM (Sigma) plus Ham's F12 (Sigma) medium containing HEPES (15 mM), insulin (0.002 mg/ml), transferrin (0.005 mg/ml), hydrocortisone, (40 ng/ml), epidermal growth factor (10 ng/ml). The ovarian cancer cell line CP70 was obtained as a gift from Dr. Gil Mor (Yale University) and cultured in a 1:1 mixture DMEM plus Ham's F12 medium, and SKOV-3 was purchased from ATCC and cultured in McCoy's 5a medium. The breast cancer cell line MDA-MB-468 cultured in Leibovitz's L-15 medium.
(§2) All cultures were supplemented with 10% FCS(CSL, Australia), penicillin (100 U/ml), streptomycin ([…]), L-glutamine (2 mM) and sodium bicarbonate (1.2 g/L), and cultured at 37° C. in a humidified atmosphere of 5% CO2. All remaining cell lines were purchased from ATCC (Maryland, USA) except where noted.
(§3) IC50 values were determined for each cell line. Cells were seeded in 96-well plates at an appropriate cell density as determined from growth kinetics analysis. NFFs were cultured for 5 days and RK-13s for 24 hrs in the absence and presence of the test compounds. Cell proliferation was assessed after the addition of 20 μl of 3-4,5 dimethylthiazol-2,5-diphenyl tetrazolium bromide (MTT, 2.5 mg/ml in PBS, Sigma) for 3-4 hrs at 37° C. according to manufacturer's instructions. IC50 values were calculated from semi-log plots of % of control proliferation on the y-axis against log dose on the x-axis.

HPAC (Pancreatic) cells = assay: Chemosensitisation, combination with antineoplastic agent, HPAC; format: cell-based, human
Protocol: The utility of the dimeric compounds of the invention to act as a chemosensitiser when used in combination with an array of standard chemotherapeutic agents was assessed. Dimeric Cpd. 2 was applied to various colorectal and pancreatic cancer cell lines to investigate its synergy with standard chemotherapeutic agents including cisplatin, gemcitabine, paclitaxel, doxorubicin, camptothecin and topotecan.
The experiment as outlined in SOP-BD011 (Versions A and B) was used to screen three antineoplastic agents against a given cell line in any ‘one’ experiment (see for example Kanzawa et al., (1997)). The inherent design of the experiment allowed for three sequences of Cpd. 2 and an antineoplastic agent. • 1) Direct Sequence—Cells are treated with both Cpd. 2 and a single antineoplastic agent (combined) for 5 days. • 2) Cpd. 2 First (Forward) Sequence—Cells are treated for 24 hours with Cpd. 2 before replacing with a 24 hour antineoplastic agent treatment; drugs are then washed out and processed on Day 5. • 3) Reverse Sequence—The reverse order to experiment No. 2 above. i.e. a cytotoxin first sequence Results and Conclusions
All data was evaluated using the formulae of theoretic additivity incorporated into a three dimensional model, as described by Kanzawa et al. (1997). […]

A2780 (Ovarian) = assay: In vitro cytotoxicity, MTT proliferation assay, A2780; format: cell-based, human; settings: Homo sapiens
Protocol: as §1, §2, §3

TXB2 = TXB2 in murine macrophages (RAW 264.7) stimulated with LPS; format: cell-based, mouse; settings: RAW 264.7, LPS 50 ng/ml, 16 hrs, dose responsive
Protocol: The mouse macrophage cell line RAW 264.7 was cultured in DMEM supplemented with FCS, 2 mM glutamine and 50 U/ml penicillin/streptomycin. Subconfluent cells were detached from the flask by gentle scraping and 24-well plates seeded at 5×10^5 cells per well and allowed to adhere for 1 hr. Cells were then treated either test compounds (in 0.025% DMSO) or vehicle alone, and incubated for 1 hr. LPS 50 ng/ml (LPS —Sigma-Aldrich) was then added. After incubation for 16 hrs, culture media was collected and stored at −80° C. for ecosanoid and cytokine measurements using enzyme immunometric assays (PGE2 and TXB2—Cayman Chemical and TNFα—Becton Dickinson).

[1] = tested on: human pancreatic cancer cell line, HPAC (CRL-2119); assay: In vitro cytotoxicity, MTT proliferation assay, CRL-2119; format: cell-based; settings: Homo sapiens, HPAC; Pancreatic CRL-2119
Protocol: as §1, §2, §3

[2] = tested on: RK-13 (rabbit kidney) cells; assay: Normal cell toxicity, MTT proliferation assay, rabbit kidney cells; format: cell-based; settings: Oryctolagus cuniculus, 24 hrs
Protocol: Neonatal foreskin fibroblasts (NFF) were a gift from Dr. Peter Parsons (Queensland Institute of Medical Research). RK-13 (rabbit kidney) cells were obtained from Miller Whalley (Macquarie University). Both cell types were cultured in RPMI supplemented with 10% FCS (CSL, Australia), penicillin (100 U/ml), streptomycin ([…]), L-glutamine (2 mM) and sodium bicarbonate (1.2 g/L), and cultured at 37° C. in a humidified atmosphere of 5% CO2.
as §3

splenocytes = assay: Murine splenocyte proliferation with mitogens (MTT), 3 day incubation with compound; format: cell-based, Male Skh-1 (hairless) mice
Protocol: Male Skh-1 (hairless) mice, six weeks old were killed by cervical dislocation. Single cell suspensions were made from their spleens and erythrocytes were lysed in buffer (0.14M NH4Cl, 17 mM Tris, pH 7.2). The remaining splenocytes were cultured in RPMI-1640 (Gibco) supplemented with 10% (v:v) FBS, 200 mM L-glutamine, penicillin/streptomycin and […] 2-mercaptoethanol. […] Samples were analysed after a 3 day incubation at 37° C. in 5% CO2 in air. To assess cell numbers, methylthiazoletetrazolium (MTT) was added to each well, incubated for a further 4 hrs and then colour developed with 0.04N HCl in isopropanol (Mosmann 1983). Plates were read at 570 nm and 630 nm. The compounds were examined several times using different mice. For each assay, the effect of test compound was compared with that of vehicle control, and the results compared using a student's t test (Prism). Statistically significant difference was determined to have occurred when p<0.05.

MCF-7 (Breast) = assay: In vitro cytotoxicity, MTT proliferation assay, MCF-7; format: cell-based, human; settings: Homo sapiens, MCF7; Breast MCF-7
Protocol: as §1, §2, §3

MM96L (Melanoma) = assay: In vitro cytotoxicity, MTT proliferation assay, MM96L; format: cell-based, human; settings: Homo sapiens
Protocol: as §1, §2, §3

HTB-138 (Glioma) = assay: In vitro cytotoxicity, MTT proliferation assay, HTB-138; format: cell-based, human; settings: Homo sapiens; Glioma HTB-138
Protocol: as §1, §2, §3

[3] = Toxicity study, i/p administration in mice; format: in vivo; settings: 50 mg/kg i/p daily
Protocol: In a small study, BALB/cnu/nu mice were administered with either Compound 2 (n=2) as a solution in 6% Tween 20:PBS at 50 mg/kg or an equivalent volume of vehicle (n=2), by i/p injection. Mice were weighed and observed for signs of toxicity daily using clinical monitoring sheets. On day 9, mice were killed by cervical dislocation, and the kidney, spleen and liver of each mouse were collected for histological assessment of toxicity.

COc1ccc(C23COc4c(ccc(O)c4C)C2C2c4ccc(O)c(C)c4OCC2c2cc(OC)c(OC)cc23)cc1OC (stereo not drawn) [Cpd. 2, 4,9-Dihydroxy-14,15-dimethoxy-12a-(3′,4′-dimethoxyphenyl)-3,10-dimethyl-2,11-dioxa-(1H,12H)-6b,6c,12a,16b-tetrahydronaphtho[1,2-g]chrysene]
IC50 (PC3 (Prostate)): 7.36 ± 1.35 µM
synergy with Gemcitabine (HPAC (Pancreatic) cells; Cpd. 2 concentrations greater than 5 μM): Synergy was not observed
synergy with Gemcitabine (HPAC (Pancreatic) cells; simultaneously (A) or 24 hour sequences (B,C)): synergistic cytotoxicity
IC50 (A2780 (Ovarian)): 10.16 ± 0.07 µM
effect on TXB2 (TXB2): inhibited
IC50 [1]: 11.2 ± 4.7 µM
IC50 [2]: 36 ± 2.7 µM
effect on splenocyte proliferation (splenocytes; 10 μM, four different assays): no consistent trend
proliferation compared with vehicle control (splenocytes; higher concentrations (than 10 μM), regardless of mitogenic stimulation): reduced proliferation
IC50 (MCF-7 (Breast)): 10.3 µM
IC50 (MM96L (Melanoma)): 6.8 µM
IC50 (HTB-138 (Glioma)): 16.4 µM
body weight gain vs vehicle ([3]; 9 days): no difference
clinical signs ([3]; 9 days): no abnormal clinical signs
histological assessment of toxicity (kidney, spleen, liver) ([3]; day 9): no histological evidence of toxicity
